Data reported in patent US10329283B2, “G protein-coupled receptor kinase inhibitors and methods for use of the same” (THE REGENTS OF THE UNIVERSITY OF MICHIGAN, priority 2015, dated 2019).
Counter-ions that a name gives are not always drawn.

Assays:
Format in all cases: biochemical
Conditions in all cases: 50 nM GRK, 5 μM ATP, 500 nM bROS or tubulin, 5 min
[1] = target: T1, GRK1 (Bos taurus, UniProt P28327); assay: GRK1 kinetic assay for inhibition of GRKs (phosphorimaging)
T1 sequence (P28327 1-535 limits assumed): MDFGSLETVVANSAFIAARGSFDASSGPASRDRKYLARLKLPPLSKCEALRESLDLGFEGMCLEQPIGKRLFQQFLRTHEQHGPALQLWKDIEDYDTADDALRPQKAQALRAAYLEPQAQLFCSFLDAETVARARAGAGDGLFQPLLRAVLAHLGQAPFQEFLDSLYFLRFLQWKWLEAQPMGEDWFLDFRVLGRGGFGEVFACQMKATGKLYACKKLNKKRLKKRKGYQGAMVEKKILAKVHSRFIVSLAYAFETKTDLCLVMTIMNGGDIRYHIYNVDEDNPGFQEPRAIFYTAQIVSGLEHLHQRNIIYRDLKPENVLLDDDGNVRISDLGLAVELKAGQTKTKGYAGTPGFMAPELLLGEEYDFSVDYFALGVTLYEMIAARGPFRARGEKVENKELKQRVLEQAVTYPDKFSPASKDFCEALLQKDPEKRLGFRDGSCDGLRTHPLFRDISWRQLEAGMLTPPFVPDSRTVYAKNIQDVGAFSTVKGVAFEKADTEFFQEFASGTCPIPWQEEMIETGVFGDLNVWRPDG
Experimental: (§1) The low salt concentration and DDM were used to maximize GRK activity and disrupt small molecule aggregates from forming, respectively. […] Data was analyzed and inhibition curves were fit via GraphPad Prism.

[2] = target: T2, GRK2 (Homo sapiens, UniProt P25098); assay: GRK2 kinetic assay for inhibition of GRKs (phosphorimaging)
T2 sequence (P25098 1-689): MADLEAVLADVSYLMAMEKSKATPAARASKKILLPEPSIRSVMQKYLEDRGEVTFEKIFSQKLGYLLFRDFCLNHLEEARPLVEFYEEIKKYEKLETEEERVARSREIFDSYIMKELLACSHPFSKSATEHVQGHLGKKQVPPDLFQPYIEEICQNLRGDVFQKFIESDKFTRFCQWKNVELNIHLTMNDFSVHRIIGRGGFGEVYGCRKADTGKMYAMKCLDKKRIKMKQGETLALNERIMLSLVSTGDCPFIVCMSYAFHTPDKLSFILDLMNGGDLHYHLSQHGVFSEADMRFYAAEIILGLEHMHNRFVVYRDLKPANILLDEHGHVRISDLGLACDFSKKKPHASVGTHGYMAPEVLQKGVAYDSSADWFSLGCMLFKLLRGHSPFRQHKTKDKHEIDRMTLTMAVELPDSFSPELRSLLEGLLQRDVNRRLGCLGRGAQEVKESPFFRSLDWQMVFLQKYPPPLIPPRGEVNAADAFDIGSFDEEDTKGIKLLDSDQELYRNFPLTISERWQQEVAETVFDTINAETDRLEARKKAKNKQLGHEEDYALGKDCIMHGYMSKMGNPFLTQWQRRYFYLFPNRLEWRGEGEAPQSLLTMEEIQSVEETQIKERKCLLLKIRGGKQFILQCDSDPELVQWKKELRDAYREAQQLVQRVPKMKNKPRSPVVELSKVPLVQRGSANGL
Experimental: as §1

[3] = target: GRK5 (Homo sapiens, UniProt P34947); assay: GRK5 kinetic assay for inhibition of GRKs (phosphorimaging)
Sequence of GRK5 (P34947 whole entry, species assumed): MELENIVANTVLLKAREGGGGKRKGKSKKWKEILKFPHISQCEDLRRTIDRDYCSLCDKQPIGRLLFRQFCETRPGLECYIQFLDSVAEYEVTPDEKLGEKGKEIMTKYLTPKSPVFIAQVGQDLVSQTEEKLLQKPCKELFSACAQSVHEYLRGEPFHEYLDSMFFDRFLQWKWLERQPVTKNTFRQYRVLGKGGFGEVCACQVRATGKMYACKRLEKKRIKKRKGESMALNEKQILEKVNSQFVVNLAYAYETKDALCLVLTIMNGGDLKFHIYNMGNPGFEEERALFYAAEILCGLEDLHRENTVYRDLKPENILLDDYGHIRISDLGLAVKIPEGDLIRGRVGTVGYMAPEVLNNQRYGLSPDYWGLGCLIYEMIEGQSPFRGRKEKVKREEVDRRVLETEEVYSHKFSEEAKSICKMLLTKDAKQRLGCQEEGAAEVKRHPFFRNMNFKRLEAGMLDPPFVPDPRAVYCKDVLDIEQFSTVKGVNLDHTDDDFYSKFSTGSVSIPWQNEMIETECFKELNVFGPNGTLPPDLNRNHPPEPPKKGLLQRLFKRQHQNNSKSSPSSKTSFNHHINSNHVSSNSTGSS
Experimental: as §1

Row | IC50 [1] [µM] | IC50 [2] [µM] | IC50 [3] [µM] | SMILES
1 | > 100 | 2.53 | > 100 | O=C(Cc1cc([C@@H]2CCNC[C@H]2COc2ccc3c(c2)OCO3)ccc1F)NCc1c(F)cccc1F [Example E01, 2-(5-((3S,4R)-3-((benzo[d][1,3]dioxol-5-yloxy)methyl)piperidin-4-yl)-2-fluorophenyl)-N-(2,6-difluorobenzyl)acetamide hydrochloride]
2 | 95.3 | 0.42 | > 100 | O=C(Cc1cc([C@@H]2CCNC[C@H]2COc2ccc3c(c2)OCO3)ccc1F)NCCc1c(F)cccc1F [Example E02, 2-(5-((3S,4R)-3-((benzo[d][1,3]dioxol-5-yloxy)methyl)piperidin-4-yl)-2-fluorophenyl)-N-(2,6-difluorophenethyl)acetamide hydrochloride]
3 |  | 3.65 | > 100 | O=C(Cc1cc([C@@H]2CCNC[C@H]2COc2ccc3c(c2)OCO3)ccc1F)NCCc1ccccn1 [Example E03, 2-(5-((3S,4R)-3-((benzo[d][1,3]dioxol-5-yloxy)methyl)piperidin-4-yl)-2-fluorophenyl)-N-(2-(pyridin-2-yl)ethyl)acetamide hydrochloride]
4 |  | 0.62 | > 100 | O=C(Cc1cc([C@@H]2CCNC[C@H]2COc2ccc3c(c2)OCO3)ccc1F)NCCc1cn[nH]c1 [Example E04, N-(2-(1H-pyrazol-4-yl)ethyl)-2-(5-((3S,4R)-3-((benzo[d][1,3]dioxol-5-yloxy)methyl)piperidin-4-yl)-2-fluorophenyl)acetamide hydrochloride]
5 | 59.2 | 3.61 | > 100 | O=C(Cc1cc([C@@H]2CCNC[C@H]2COc2ccc3c(c2)OCO3)ccc1F)NCc1ccccn1 [Example E05, 2-(5-((3S,4R)-3-((benzo[d][1,3]dioxol-5-yloxy)methyl)piperidin-4-yl)-2-fluorophenyl)-N-(pyridin-2-ylmethyl)acetamide hydrochloride]
6 |  | 0.64 | > 100 | COc1ccccc1CNC(=O)Cc1cc([C@@H]2CCNC[C@H]2COc2ccc3c(c2)OCO3)ccc1F [Example E06, 2-(5-((3S,4R)-3-((benzo[d][1,3]dioxol-5-yloxy)methyl)piperidin-4-yl)-2-fluorophenyl)-N-(2-methoxybenzyl)acetamide hydrochloride]
7 |  | 0.44 | 15.2 | O=C(NCc1ccccn1)c1cc([C@@H]2CCNC[C@H]2COc2ccc3c(c2)OCO3)ccc1F [Example E07, 5-((3S,4R)-3-((benzo[d][1,3]dioxol-5-yloxy)methyl)piperidin-4-yl)-2-fluoro-N-(pyridin-2-ylmethyl)benzamide hydrochloride]
8 |  | 1.75 | > 100 | O=C(NCCc1cn[nH]c1)c1cc([C@@H]2CCNC[C@H]2COc2ccc3c(c2)OCO3)ccc1F [Example E08, N-(2-(1H-pyrazol-4-yl)ethyl)-5-((3S,4R)-3-((benzo[d][1,3]dioxol-5-yloxy)methyl)piperidin-4-yl)-2-fluorobenzamide hydrochloride]
9 |  | 48.5 | > 100 | COc1ccccc1CNC(=O)c1cc([C@@H]2CCNC[C@H]2COc2ccc3c(c2)OCO3)ccc1F [Example E09, 5-((3S,4R)-3-((benzo[d][1,3]dioxol-5-yloxy)methyl)piperidin-4-yl)-2-fluoro-N-(2-methoxybenzyl)benzamide hydrochloride]
10 |  | 12.5 | 61.9 | O=C(NCc1ccccc1C(F)(F)F)c1cc([C@@H]2CCNC[C@H]2COc2ccc3c(c2)OCO3)ccc1F [Example E10, 5-((3S,4R)-3-((benzo[d][1,3]dioxol-5-yloxy)methyl)piperidin-4-yl)-2-fluoro-N-(2-(trifluoromethyl)benzyl)benzamide hydrochloride]
11 |  |  | 45.5 | O=C(NCc1c(F)cccc1F)c1cc([C@@H]2CCNC[C@H]2COc2ccc3c(c2)OCO3)ccc1F [Example E11, 5-((3S,4R)-3-((benzo[d][1,3]dioxol-5-yloxy)methyl)piperidin-4-yl)-N-(2,6-difluorobenzyl)-2-fluorobenzamide hydrochloride]
12 | 11.3 | 1.01 | 56.4 | Cc1cccc(C)c1CNC(=O)c1cc([C@@H]2CCNC[C@H]2COc2ccc3c(c2)OCO3)ccc1F [Example E13, 5-((3S,4R)-3-((benzo[d][1,3]dioxol-5-yloxy)methyl)piperidin-4-yl)-N-(2,6-dimethylbenzyl)-2-fluorobenzamide hydrochloride]
13 |  |  | 84.3 | O=C(NCc1ccccc1)c1cc([C@@H]2CCNC[C@H]2COc2ccc3c(c2)OCO3)ccc1F [Example E19, 5-((3S,4R)-3-((benzo[d][1,3]dioxol-5-yloxy)methyl)piperidin-4-yl)-N-benzyl-2-fluorobenzamide]
14 |  |  | > 100 | O=C(NCCc1ccccc1)c1cc([C@@H]2CCNC[C@H]2COc2ccc3c(c2)OCO3)ccc1F [Example E20, 5-((3S,4R)-3-((benzo[d][1,3]dioxol-5-yloxy)methyl)piperidin-4-yl)-2-fluoro-N-phenethylbenzamide]
15 |  |  | 76.3 | O=C(NCc1cccnc1)c1cc([C@@H]2CCNC[C@H]2COc2ccc3c(c2)OCO3)ccc1F [Example E21, 5-((3S,4R)-3-((benzo[d][1,3]dioxol-5-yloxy)methyl)piperidin-4-yl)-2-fluoro-N-(pyridin-3-ylmethyl)benzamide]
16 |  |  | > 100 | O=C(NCc1ccncc1)c1cc([C@@H]2CCNC[C@H]2COc2ccc3c(c2)OCO3)ccc1F [Example E22, 5-((3S,4R)-3-((benzo[d][1,3]dioxol-5-yloxy)methyl)piperidin-4-yl)-2-fluoro-N-(pyridin-4-ylmethyl)benzamide]
17 |  |  | > 100 | O=C(NCCc1ccccn1)c1cc([C@@H]2CCNC[C@H]2COc2ccc3c(c2)OCO3)ccc1F [Example E23, 5-((3S,4R)-3-((benzo[d][1,3]dioxol-5-yloxy)methyl)piperidin-4-yl)-2-fluoro-N-(2-(pyridin-2-yl)ethyl)benzamide]
18 |  |  | > 100 | O=C(NCCc1ccncc1)c1cc([C@@H]2CCNC[C@H]2COc2ccc3c(c2)OCO3)ccc1F [Example E24, 5-((3S,4R)-3-((benzo[d][1,3]dioxol-5-yloxy)methyl)piperidin-4-yl)-2-fluoro-N-(2-(pyridin-4-yl)ethyl)benzamide]
19 |  |  | > 100 | O=C(NCCc1cccnc1)c1cc([C@@H]2CCNC[C@H]2COc2ccc3c(c2)OCO3)ccc1F [Example E25, 5-((3S,4R)-3-((benzo[d][1,3]dioxol-5-yloxy)methyl)piperidin-4-yl)-2-fluoro-N-(2-(pyridin-3-yl)ethyl)benzamide]
20 |  |  | 14.8 | O=C(NCc1ncc[nH]1)c1cc([C@@H]2CCNC[C@H]2COc2ccc3c(c2)OCO3)ccc1F [Example E27, N-((1H-imidazol-2-yl)methyl)-5-((3S,4R)-3-((benzo[d][1,3]dioxol-5-yloxy)methyl)piperidin-4-yl)-2-fluorobenzamide]
21 |  |  | > 100 | O=C(NCCc1c[nH]cn1)c1cc([C@@H]2CCNC[C@H]2COc2ccc3c(c2)OCO3)ccc1F [Example E28, N-(2-(1H-imidazol-4-yl)ethyl)-5-((3S,4R)-3-((benzo[d][1,3]dioxol-5-yloxy)methyl)piperidin-4-yl)-2-fluorobenzamide]
